Measured values as given in PMC9142922, “Galactosylated Prodrugs: A Strategy to Improve the Profile of Nonsteroidal Anti-Inflammatory Drugs” (Pharmaceuticals, 2022).

Legend:
[1] = test system: acetic-acid-induced writhing in mice; assay: Acetic-acid-induced writhing test; format: in vivo, CD1 mice; settings: oral IbuGAL 17.8, IndoGAL 14.5, OkyGAL 16.4, FluGAL 16.7 mg/kg; 0.6% acetic acid i.p.; 48 h
Method: The number of acetic-acid-induced abdominal stretches can be evaluated in Figure 3. Control mice received an intraperitoneal injection of 0.6% acetic acid (10 mL/kg). […]
Figure 5 (a–d). Total number of writhing episodes within 20 min after acetic acid injection. […] Data are expressed as means ± S.E.M. of 6 animals. *** p < 0.001, ** p < 0.01 vs. Control.
The acetic-acid-induced writhing test was performed as reported previously. […] The number of abdominal constrictions and extensions of the trunk and hind limbs were counted for each group of mice, starting from 5 min after the injection of acetic acid up to 20 min afterwards, and expressed as the number of writhing episodes.

[2] = test system: carrageenan-induced paw edema in mice; assay: Carrageenan-induced paw edema / hyperalgesia; format: in vivo, CD1 mice; settings: oral; parent drugs 10 mg/kg, equimolecular IbuGAL 17.8, IndoGAL 14.5, OkyGAL 16.4, FluGAL 16.7 mg/kg
Method: We tested the anti-inflammatory response of the parent drugs and their relative galactosylated prodrugs by subcutaneously injecting λ-carrageenan (1% (w/v) in sterile saline, 20 μL) into the hind paws of mice.
Figure 4 (a–d). […] White circles represent control mice treated with vehicle. […] The increase in paw volume was evaluated and is expressed as the difference in paw volume measured at each time point and the basal paw volume measured immediately before carrageenan injection. Data are expressed as means ± S.E.M. of 6 animals. *** p < 0.001, ** p < 0.01 and […] vs. Control.
Carrageenan-induced paw edema was induced by injecting λ-carrageenan (1% w/v in sterile water, 20 μL) subcutaneously into the hind paws of mice using a 27 gauge needle. […] The increase in paw volume was evaluated using a plethysmometer (Ugo Basile, Milan, Italy) and reported as the difference between the paw volume measured at each time point and the basal paw volume measured immediately before carrageenan injection.

| SMILES | writhing responses after 48 h vs control [1] | effect on carrageenan-induced paw edema/hyperalgesia during the first phase (0–6 h) [2] |
| --- | --- | --- |
| CC(C(=O)OC[C@H]1OC(O)[C@H](O)[C@@H](O)[C@H]1O)c1ccc(-c2ccccc2)c(F)c1 (stereo partly shown) [FluGAL] | significant decrease | did not change |
| CC(C)Cc1ccc(C(C)C(=O)OC[C@H]2OC(O)[C@H](O)[C@@H](O)[C@H]2O)cc1 (stereo partly shown) [IbuGAL] | significant decrease | did not change |
